Laboratory results: patent US11472816B2, “Mcl-1 inhibitors and methods of use thereof” (AstraZeneca AB, priority 2016, dated 2022)

Assays:
NCI-H929 tumor = test: In vivo combination efficacy in NCI-H929 human multiple myeloma subcutaneous tumor model; parameters: species or system C.B-17 SCID female mice; settings: either agent alone (Example 2 30 mg/kg every other week; bortezomib 1 mg/kg weekly), NCI-H929 tumor bearing mice
Experimental: (§1) Method: Example 2 was formulated in 30% 2-Hydroxypropyl-beta-cyclodextrin (HPBCD), pH 9 and dosed as intravenously (iv) in a volume of 5 ml/kg. 5×10^6 MOLP-8 tumor cells or 10^7 NCI-H929 tumor cells were injected subcutaneously in the right flank of C.B-17 SCID female mice in a volume of 0.1 mL. Tumor volumes (measured by caliper) were calculated using the formula: length (mm)×width (mm)^2[…]. For efficacy studies, mice were randomized based on tumor volumes and growth inhibition was assessed by comparison of the differences in tumor volume between control and treated groups. Dosing began when mean tumor size reached approximately 160 mm^3 for MOLP-8 and approximately 230 mm^3 for NCI-H929.

MV-4-11 tumor = test: In vivo efficacy in MV-4-11 human acute myeloid leukemia subcutaneous tumor model; parameters: species or system C.B-17 SCID female mice
Experimental: as §1, with “a single intravenous” for “intravenously”, “(iv) administration” for “(iv)”, “10^6 MV-4-11” for “5×10^6 MOLP-8 tumor cells or 10^7 NCI-H929”, “mL. Tumor volumes (measured by caliper), animal body weight, and tumor conditions were recorded twice weekly for the duration of the study.” for “mL.”, “approximately” for “approximately 160 mm^3 for MOLP-8 and approximately”, “mm^3.” for “mm^3 for NCI-H929.”

SMILES | anti-tumor activity, agent alone (NCI-H929 tumor) | mice remaining tumor free (MV-4-11 tumor; once weekly iv 30 mg/kg, 16 days after initiation of therapy) | mice remaining tumor free (MV-4-11 tumor; single iv dose of 100 mg/kg, 16 days after therapy)
Cc1c2c(nn1C)CSCc1cc(n(C)n1)CSc1cc(c3ccccc3c1)OCCCc1c(C(=O)O)n(C)c3c-2c(Cl)ccc13 (atropisomer, axis not shown; (Ra)) [Example 2, (Ra)-(+)-17-chloro-5,13,14,22-tetramethyl-28-oxa-2,9-dithia-5,6,12,13,22-pentaazaheptacyclo[27.7.1.1^4,7.0^11,15.0^16,21.0^20,24.0^30,35]octatriaconta-1(37),4(38),6,11,14,16,18,20,23,29,31,33,35-tridecaene-23-carboxylic acid] | no significant anti-tumor activity | 1 of 6 | 4 of the 6
CC(C)C[C@H](NC(=O)[C@H](Cc1ccccc1)NC(=O)c1cnccn1)B(O)O [bortezomib, reference compound] | no significant anti-tumor activity | – | –
